Experimental findings from ChEMBL document CHEMBL3864152, “Discovery of ursolic acid prodrug (NX-201): Pharmacokinetics and in vivo antitumor effects in PANC-1 pancreatic cancer” (Bioorg Med Chem Lett, 2016) are described below.

The nature of series [1]: Tmax in rat at 25 mg/kg, po. The format is ADME, organism-based. Particulars: in vivo.
Series [2] in a line: Cmax in rat at 25 mg/kg, po. The format is ADME, organism-based. Set-up: dose 25 mg/kg, route oral. Particulars: in vivo.
The nature of series [3]: AUC in rat at 25 mg/kg, po. The format is ADME, organism-based. The settings on record: in vivo.
Series [4] is described as follows: Half life in rat at 25 mg/kg, po. Particulars: in vivo. In kind it is ADME, organism-based.
A short description of series [5]: Oral bioavailability in rat at 25 mg/kg. The format is ADME, organism-based. Particulars: in vivo.
Series [6] concerns PANC-1. Kind of series: Antitumor activity against human PANC1 cells xenografted in po dosed non-obese diabetic […] SCID mouse assessed as tumor growth inhibition administered daily for 4 weeks. The format is functional, organism-based.
In series [7] the test system is PANC-1. As to the kind of experiment: Antitumor activity against human PANC1 cells xenografted in non-obese diabetic […] SCID mouse assessed as tumor growth inhibition at 50 mg/kg, po administered daily measured after 3 weeks in presence of gemcitabine. The format is functional, organism-based.
In series [8] the test system is Mus musculus. As to the kind of experiment: Toxicity in non-obese diabetic […] SCID mouse xenografted with human PANC1 cells assessed as change in body weight at 25 to 100 mg/kg, po administered daily for 4 weeks. The settings on record: in vivo, 672 h. In kind it is organism-based, PANC-1.
Series [9] has as its system Mus musculus. Kind of series: Toxicity in non-obese diabetic […] SCID mouse xenografted with human PANC1 cells assessed as change in body weight at 50 mg/kg, po administered daily for 4 weeks in presence of gemcitabine. The settings on record: in vivo, 672 h. The format is organism-based, PANC-1.
Series [10] relates to PANC-1. As to the kind of experiment: Antitumor activity against human PANC1 cells xenografted in non-obese diabetic […] SCID mouse assessed as tumor growth inhibition at 40 mg/kg, iv administered 2 times per week for 4 weeks. In kind it is functional, organism-based.
Series [11] relates to Mus musculus. As to the kind of experiment: Toxicity in non-obese diabetic […] SCID mouse xenografted with human PANC1 cells assessed as change in body weight at 40 mg/kg, iv administered 2 times per week for 4 weeks. In kind it is organism-based, PANC-1. The settings on record: in vivo, 672 h.
Series [12] in a line: Oral bioavailability in Sprague-Dawley rat at 25 mg/kg. The format is ADME, organism-based. Particulars: in vivo.
The nature of series [13]: Dissociation constant, pKa of the compound. The format is physicochemical.
Series [14] can be described thus: Tmax in rat at 0.5 mg/kg, iv. In kind it is ADME, organism-based. Particulars: in vivo.
Series [15] in a line: AUC in rat at 0.5 mg/kg, iv. In kind it is ADME, organism-based. The settings on record: in vivo.
Series [16] in a line: Half life in rat at 0.5 mg/kg, iv. The format is ADME, organism-based. Particulars: in vivo.
The subject of series [17] is Mus musculus. Kind of series: Toxicity in non-obese diabetic […] SCID mouse xenografted with human PANC1 cells assessed as change in body weight at 50 mg/kg, po administered daily for 4 weeks. The format is organism-based, PANC-1. Particulars: in vivo, 672 h.
Series [18] is described as follows: in vivo. The settings on record: rat, iv, 0.5 mg/kg.
Description: Cmax in rat at 0.5 mg/kg, iv

The source made the active and inactive calls. The calls are words filed in the database; no cut-off is given here.

Turning to `Cc1oc(=O)oc1COC(=O)[C@]12CC[C@@H](C)[C@H](C)[C@H]1C1=CC[C@@H]3[C@@]4(C)CC[C@H](O)C(C)(C)[C@@H]4CC[C@@]3(C)[C@]1(C)CC2`, the Tmax in series [1] was 87.6 min. In series [2], this compound registered a Cmax of 30.3 ng/mL. The AUC in series [3] stood at 132 ng·h/mL. In series [4], this compound showed a half-life of 283 min. In [5], this compound returned a bioavailability of 2.3%. Also, the TGI result in series [6] was “Dose-dependent effect”. The TGI result in series [7] is “Active”. Besides, the Activity entry in series [8] and in [9] was “Non-Toxic” throughout.

Turning to `Nc1ccn([C@@H]2O[C@H](CO)[C@@H](O)C2(F)F)c(=O)n1` [GEMCITABINE], the TGI entry in [10] is “Active”. Further, the Activity result in series [11] was “Non-Toxic”.

On to `CC1(C)CC[C@]2(C(=O)O)CC[C@]3(C)C(=CC[C@@H]4[C@@]5(C)CC[C@H](O)C(C)(C)[C@@H]5CC[C@]43C)[C@@H]2C1` [OLEANOLIC_ACID], for which the bioavailability in series [12] turned out to be 0.7%.

Consider `C[C@H]1[C@H](C)CC[C@]2(C(=O)O)CC[C@]3(C)C(=CC[C@@H]4[C@@]5(C)CC[C@H](O)C(C)(C)[C@@H]5CC[C@]43C)[C@H]12` [URSOLIC ACID], for which the pKa in series [13] was 5.29. The Tmax in series [14] is 4.8 min; in series [1], 15 min. The Cmax in series [2] amounted to 1.9 ng/mL; in series [18] it was 378 ng/mL. The AUC is 114 ng·h/mL in [15] and 0.6 ng·h/mL in [3]. In addition, the values for the half-life in [16] and in series [4] were 93 min and 18 min, respectively. The compound also displayed a bioavailability in series [5] of under 0.01%. In addition, the Activity result in [17] is recorded as “Non-Toxic”.
